Experiments:
ddY-N mouse = assay: Body weight gain of young mice over 28 days of administration (Example 7); format: in vivo
Procedure: A total of 120 animals (60 animals for each of male and female) of about 4 weeks old of ddY-N mouse produced by Nippon Ikagaku Dobutsu Shizai Kenkyusho Co., Ltd. was purchased and subjected to 1 week of medical inspection to confirm that their healthy state is normal, and then used in the test. The test plots were set to a total of 4 plots of a control plot in which distilled water for injection is administered into the stomach using a stomach tube at a ratio of 10 ml per 1 kg body weight of the mouse to be tested for 28 continuous days, and 3 test plots in which ALA hydrochloride is administered in the same manner at respective ratios of 5 mg, 10 mg and 25 mg per 1 kg body weight of the mouse to be tested. The mice to be tested were divided into 12 groups, 1 group including 5 males or females, in such a manner that average body weight of each group became almost uniform, and 3 groups of males or females were allotted to each plot and raised for 28 days. The mice to be tested were raised by each group using a series of five stainless steel cages arranged in a raising room set to a room temperature of 23.0±2.0° C. and an irradiation time of 12 hours/day. Body weight gain was calculated by measuring individual body weight at intervals of 1 week from the start of the test.

LW·D piglets = assay: Body weight gain of piglets fed ALA hydrochloride for 6 weeks (Example 8); format: in vivo, pig
Source text: LW·D piglets produced on the same day at a swinery were purchased 3 times, each time for 14 animals (each 7 animals of castrates and females), and subjected to preliminary raising for 9 to 12 days to confirm that their healthy state is normal, and then 12 animals (each 6 animals of castrates and females) were selected for each time and used in the test. The test plots were set to a total of 3 plots of a control plot in which a control feed (Table 8) without adding ALA hydrochloride is provided, and 2 test plots in which 10 ppm or 50 ppm of ALA hydrochloride is added to the feed and provided. The piglets to be tested were divided into 3 groups, each group including 4 animals (each 2 animals of castrates and females), in such a manner that distribution of body weight became almost uniform, and 1 groups was allotted to each plot and raised for 6 weeks. The swinery used in the test was an open type swinery in which a pig chamber of 1.8×2.7 m concrete floor was arranged in a row of 14 chambers, and group feeding was carried out using adjoining 3 pig chambers for each block. Rice straws were used as the bedding. A warm-keeping box was arranged in each pig chamber for 3 weeks after start of the test. The feed and drinking water were constantly provided. Body weight gain was calculated by measuring individual body weight at intervals of 1 week from the start of the test.

[1] = system: Mice (35 to 45 weeks old, BALB/cAJc1); assay: Thymus weight of aged mice after 7 days oral ALA hydrochloride (Example 1); format: in vivo, mouse; conditions: 10 mg/kg ALA hydrochloride orally once a day for 7 days, average of 5
Procedure: Mice (35 to 45 weeks old, BALB/cAJc1) preliminary raised for 1 week were injected with 10 mg of 5-aminolevulinic acid (hereinafter referred to as “ALA”) hydrochloride per kg mouse body weight once a day for 7 days continuously. ALA hydrochloride was adjusted to a concentration of […] with distilled water and orally administered to the mice. After the test, each mouse was sacrificed and the weight of its thymus was measured. The test was carried out using 5 mice per 1 plot, and their values were shown by average value.

[2] = system: glutathione peroxidase (GPx); assay: GPx activity of thymus tissue (Example 3); format: in vivo, mouse; conditions: 10 mg/kg orally once a day for 7 days
Procedure: Mice (35 to 45 weeks old, BALB/cAJc1) preliminary raised for 1 week were injected with 10 mg of ALA hydrochloride per 1 kg mouse body weight once a day for 7 days continuously. ALA hydrochloride was adjusted to a concentration of […] with distilled water and orally administered to the mice. After the test, each mouse was sacrificed and the thymus of mouse was collected to measure superoxide dismutase (SOD) activity of its tissue. To the collected thymus, 1.0 ml of 0.25 M sucrose solution was added, and the mixture homogenized and then centrifuged at 10,000 G for 10 minutes, and the resulting supernatant solution was used as the enzyme solution. […] That is, 250 μl of a reaction solution containing 125 μl of 0.1 M potassium phosphate buffer (pH 7.5), 10 μl of the enzyme liquid, 60 μl of 0.1 unit/ml xanthine oxidase, 45 μl of distilled water and 10 μl of 0.3 mM MPEC was dispensed into Luminescencer-PSN (manufactured by Atto Corp.), 50 μl of 0.72 mM hypoxanthine (pH 7.5) was added for emission. […]
In addition, glutathione peroxidase (GPx) activity was also measured. […]
The calculation was carried out by the following formula using the molecular extinction coefficient of NADPH of a=6.3 cm^2/μmole, by calculating the slope of straight line ΔOD (ΔOD=Δcm (quantity of change of y axis)×OD Max/full cm) from the chart. […]

NCC(=O)CCC(=O)O [ALA, 5-aminolevulinic acid]
Growth (growth curves, body weight gain) (ddY-N mouse; 10 mg/kg into the stomach for 28 days, compared with control, 5 mg/kg and 25 mg/kg plots, averages of males and females): superior growth than other 3 plots
Health state (ddY-N mouse; ALA-treated groups, 5, 10 and 25 mg/kg for 28 days): abnormal health state was not fund
Growth (growth curves, body weight gain) (LW·D piglets; 10 ppm in feed): superior growth than the control plot
Growth (growth curves, body weight gain) (LW·D piglets; 50 ppm in feed): superior growth than the control plot
Health state (LW·D piglets; ALA-treated groups, 10 ppm or 50 ppm in feed): abnormal health state was not fund
Thymus ([1]; female mice): 0.038 g
Thymus ([1]; male mice): 0.035 g
GPx activity ([2]; female mice): 0.67 U/ml
GPx activity ([2]; male mice): 0.61 U/ml
